Assay results: ChEMBL document CHEMBL5233229, “Recent advances in the development of ubiquitin-specific-processing protease 7 (USP7) inhibitors” (Eur J Med Chem, 2020)
Values belong to the molecule of their own block, whether it stands above or below them.

Experiments:
[1] = biological target: T1, Ubiquitin carboxyl-terminal hydrolase 2 (Homo sapiens) (UniProt O75604); assay: Inhibition of human USP2 (258 to 605 residues) catalytic domain assessed as inhibition constant by fluorescence based assay
T1 sequence (whole entry): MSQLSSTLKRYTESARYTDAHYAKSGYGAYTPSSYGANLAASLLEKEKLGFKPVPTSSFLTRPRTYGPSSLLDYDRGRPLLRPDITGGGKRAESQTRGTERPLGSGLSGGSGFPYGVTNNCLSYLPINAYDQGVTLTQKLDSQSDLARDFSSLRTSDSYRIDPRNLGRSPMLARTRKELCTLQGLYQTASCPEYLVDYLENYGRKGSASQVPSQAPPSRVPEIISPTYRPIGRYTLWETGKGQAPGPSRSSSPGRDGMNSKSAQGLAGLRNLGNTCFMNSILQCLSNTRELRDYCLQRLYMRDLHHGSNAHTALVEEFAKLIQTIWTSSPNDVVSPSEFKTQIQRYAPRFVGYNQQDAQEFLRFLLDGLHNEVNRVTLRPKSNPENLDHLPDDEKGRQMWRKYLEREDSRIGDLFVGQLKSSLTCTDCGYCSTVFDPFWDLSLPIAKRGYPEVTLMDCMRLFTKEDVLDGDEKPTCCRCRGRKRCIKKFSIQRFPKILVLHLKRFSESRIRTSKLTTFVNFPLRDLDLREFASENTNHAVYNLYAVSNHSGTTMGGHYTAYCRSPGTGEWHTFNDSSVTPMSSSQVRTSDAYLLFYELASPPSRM

[2] = biological target: T2, Ubiquitin carboxyl-terminal hydrolase 2 (Homo sapiens, UniProt O75604); assay: Inhibition of human his tagged USP2 by Westernblot analysis
T2 sequence (O75604 whole entry): T1 sequence (whole entry)

[3] = biological target: T3, Ubiquitin carboxyl-terminal hydrolase 5 (Homo sapiens, UniProt P45974); assay: Inhibition of human his tagged USP5 by Westernblot analysis
T3 sequence (P45974 whole entry): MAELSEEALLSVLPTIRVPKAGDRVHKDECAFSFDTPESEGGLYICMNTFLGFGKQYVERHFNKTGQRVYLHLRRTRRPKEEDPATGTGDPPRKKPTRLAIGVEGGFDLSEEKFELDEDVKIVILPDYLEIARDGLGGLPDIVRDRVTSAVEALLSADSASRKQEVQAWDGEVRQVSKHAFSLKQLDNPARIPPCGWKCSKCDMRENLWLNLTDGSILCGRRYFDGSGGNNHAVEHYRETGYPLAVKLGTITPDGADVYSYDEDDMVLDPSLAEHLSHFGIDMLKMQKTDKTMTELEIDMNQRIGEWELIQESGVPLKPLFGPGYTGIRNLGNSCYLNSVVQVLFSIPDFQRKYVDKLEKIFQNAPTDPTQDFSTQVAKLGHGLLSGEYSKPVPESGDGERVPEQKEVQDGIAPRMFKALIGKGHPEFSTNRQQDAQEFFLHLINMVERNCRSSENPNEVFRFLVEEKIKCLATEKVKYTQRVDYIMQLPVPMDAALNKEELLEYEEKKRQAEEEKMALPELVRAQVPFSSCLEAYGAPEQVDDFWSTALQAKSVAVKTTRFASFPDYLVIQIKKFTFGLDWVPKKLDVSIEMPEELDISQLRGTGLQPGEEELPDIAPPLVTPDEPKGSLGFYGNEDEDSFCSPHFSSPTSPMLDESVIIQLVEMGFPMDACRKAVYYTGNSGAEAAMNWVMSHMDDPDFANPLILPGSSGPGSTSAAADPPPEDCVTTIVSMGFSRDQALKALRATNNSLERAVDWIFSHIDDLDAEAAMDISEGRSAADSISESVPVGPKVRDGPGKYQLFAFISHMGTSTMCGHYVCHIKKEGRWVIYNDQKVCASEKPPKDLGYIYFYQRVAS

[4] = biological target: T4, Ubiquitin carboxyl-terminal hydrolase 8 (Homo sapiens, UniProt P40818); assay: Inhibition of human his tagged USP8 by Westernblot analysis
T4 sequence (P40818 whole entry): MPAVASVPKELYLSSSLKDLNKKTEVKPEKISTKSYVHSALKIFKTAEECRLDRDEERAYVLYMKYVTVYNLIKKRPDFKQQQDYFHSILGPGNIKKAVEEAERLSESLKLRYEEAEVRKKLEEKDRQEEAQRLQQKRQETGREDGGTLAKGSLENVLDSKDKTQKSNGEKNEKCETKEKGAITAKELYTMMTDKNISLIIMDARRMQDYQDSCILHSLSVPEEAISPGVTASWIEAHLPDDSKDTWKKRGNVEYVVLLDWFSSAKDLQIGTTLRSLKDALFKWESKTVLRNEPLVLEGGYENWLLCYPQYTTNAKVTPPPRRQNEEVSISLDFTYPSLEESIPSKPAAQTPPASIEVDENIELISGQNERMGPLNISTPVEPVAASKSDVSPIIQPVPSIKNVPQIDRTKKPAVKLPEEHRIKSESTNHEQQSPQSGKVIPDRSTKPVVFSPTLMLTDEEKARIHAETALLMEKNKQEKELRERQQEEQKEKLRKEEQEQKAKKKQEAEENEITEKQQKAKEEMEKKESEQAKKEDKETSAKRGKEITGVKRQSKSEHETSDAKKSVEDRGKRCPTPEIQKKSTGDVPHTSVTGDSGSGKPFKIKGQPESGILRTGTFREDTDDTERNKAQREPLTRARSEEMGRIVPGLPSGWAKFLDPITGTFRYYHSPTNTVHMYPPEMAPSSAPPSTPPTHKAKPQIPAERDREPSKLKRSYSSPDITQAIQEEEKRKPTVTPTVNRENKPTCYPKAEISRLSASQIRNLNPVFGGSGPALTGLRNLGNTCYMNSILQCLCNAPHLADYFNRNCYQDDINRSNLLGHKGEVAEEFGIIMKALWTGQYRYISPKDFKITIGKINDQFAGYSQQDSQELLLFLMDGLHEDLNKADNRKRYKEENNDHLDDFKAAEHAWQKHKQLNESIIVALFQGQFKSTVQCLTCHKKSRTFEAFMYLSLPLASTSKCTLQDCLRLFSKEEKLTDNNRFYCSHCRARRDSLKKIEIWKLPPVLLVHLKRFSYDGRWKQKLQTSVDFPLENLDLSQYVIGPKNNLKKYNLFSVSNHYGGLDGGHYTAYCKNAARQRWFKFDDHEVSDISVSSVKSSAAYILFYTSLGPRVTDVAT

[5] = biological target: Ubiquitin carboxyl-terminal hydrolase 20 (Homo sapiens, UniProt Q9Y2K6); assay: Inhibition of human his tagged USP20 by Westernblot analysis
Chain of Ubiquitin carboxyl-terminal hydrolase 20 (Q9Y2K6 whole entry): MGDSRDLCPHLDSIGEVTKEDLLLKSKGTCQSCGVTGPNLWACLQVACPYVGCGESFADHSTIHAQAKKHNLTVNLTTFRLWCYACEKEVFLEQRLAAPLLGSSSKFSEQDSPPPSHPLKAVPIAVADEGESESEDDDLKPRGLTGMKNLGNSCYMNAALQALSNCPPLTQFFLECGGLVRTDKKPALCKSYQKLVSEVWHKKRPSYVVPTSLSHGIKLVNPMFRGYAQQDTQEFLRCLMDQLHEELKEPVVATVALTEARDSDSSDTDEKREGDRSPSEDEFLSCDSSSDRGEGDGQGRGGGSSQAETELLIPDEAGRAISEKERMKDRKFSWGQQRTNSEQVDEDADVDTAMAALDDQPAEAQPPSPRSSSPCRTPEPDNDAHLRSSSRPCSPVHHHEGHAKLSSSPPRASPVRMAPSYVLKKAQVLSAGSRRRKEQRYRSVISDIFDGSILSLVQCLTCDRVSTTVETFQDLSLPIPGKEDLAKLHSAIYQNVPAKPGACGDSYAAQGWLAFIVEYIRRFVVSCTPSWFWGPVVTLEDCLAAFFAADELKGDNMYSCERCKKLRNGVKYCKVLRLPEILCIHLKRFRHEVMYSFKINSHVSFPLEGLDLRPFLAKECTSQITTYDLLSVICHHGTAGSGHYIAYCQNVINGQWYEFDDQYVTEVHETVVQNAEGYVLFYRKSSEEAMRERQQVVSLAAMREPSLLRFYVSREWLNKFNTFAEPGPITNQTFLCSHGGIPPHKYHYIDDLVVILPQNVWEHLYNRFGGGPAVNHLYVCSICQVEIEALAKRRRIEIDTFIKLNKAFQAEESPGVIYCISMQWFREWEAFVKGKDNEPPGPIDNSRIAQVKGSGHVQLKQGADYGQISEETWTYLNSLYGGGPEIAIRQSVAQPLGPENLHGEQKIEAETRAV

[6] = biological target: T5, Ubiquitin carboxyl-terminal hydrolase isozyme L1 (Homo sapiens, UniProt P09936); assay: Inhibition of human his tagged UCH-L1 by Westernblot analysis
T5 sequence (P09936 whole entry): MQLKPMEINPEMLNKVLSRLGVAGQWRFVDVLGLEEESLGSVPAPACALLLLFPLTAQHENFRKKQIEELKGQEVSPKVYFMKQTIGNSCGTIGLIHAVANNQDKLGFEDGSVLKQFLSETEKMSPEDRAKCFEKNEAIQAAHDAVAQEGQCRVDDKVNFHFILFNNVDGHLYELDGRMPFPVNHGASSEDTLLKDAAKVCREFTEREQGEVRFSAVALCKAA

[7] = biological target: T6, Ubiquitin carboxyl-terminal hydrolase isozyme L3 (Homo sapiens, UniProt P15374); assay: Inhibition of human his tagged UCH-L3 by Westernblot analysis
T6 sequence (P15374 whole entry): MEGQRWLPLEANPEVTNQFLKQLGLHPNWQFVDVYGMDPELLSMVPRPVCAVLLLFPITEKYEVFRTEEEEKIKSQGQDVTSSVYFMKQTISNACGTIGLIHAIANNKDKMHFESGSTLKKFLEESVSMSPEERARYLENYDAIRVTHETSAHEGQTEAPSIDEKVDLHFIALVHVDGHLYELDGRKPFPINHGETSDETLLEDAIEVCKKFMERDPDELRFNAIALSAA

[8] = biological target: T7, Ubiquitin carboxyl-terminal hydrolase 7 (Homo sapiens, UniProt Q93009); assay: Inhibition of human USP7 by SPR analysis
Target sequence in this assay (Q93009 whole entry, the tested form may be a part): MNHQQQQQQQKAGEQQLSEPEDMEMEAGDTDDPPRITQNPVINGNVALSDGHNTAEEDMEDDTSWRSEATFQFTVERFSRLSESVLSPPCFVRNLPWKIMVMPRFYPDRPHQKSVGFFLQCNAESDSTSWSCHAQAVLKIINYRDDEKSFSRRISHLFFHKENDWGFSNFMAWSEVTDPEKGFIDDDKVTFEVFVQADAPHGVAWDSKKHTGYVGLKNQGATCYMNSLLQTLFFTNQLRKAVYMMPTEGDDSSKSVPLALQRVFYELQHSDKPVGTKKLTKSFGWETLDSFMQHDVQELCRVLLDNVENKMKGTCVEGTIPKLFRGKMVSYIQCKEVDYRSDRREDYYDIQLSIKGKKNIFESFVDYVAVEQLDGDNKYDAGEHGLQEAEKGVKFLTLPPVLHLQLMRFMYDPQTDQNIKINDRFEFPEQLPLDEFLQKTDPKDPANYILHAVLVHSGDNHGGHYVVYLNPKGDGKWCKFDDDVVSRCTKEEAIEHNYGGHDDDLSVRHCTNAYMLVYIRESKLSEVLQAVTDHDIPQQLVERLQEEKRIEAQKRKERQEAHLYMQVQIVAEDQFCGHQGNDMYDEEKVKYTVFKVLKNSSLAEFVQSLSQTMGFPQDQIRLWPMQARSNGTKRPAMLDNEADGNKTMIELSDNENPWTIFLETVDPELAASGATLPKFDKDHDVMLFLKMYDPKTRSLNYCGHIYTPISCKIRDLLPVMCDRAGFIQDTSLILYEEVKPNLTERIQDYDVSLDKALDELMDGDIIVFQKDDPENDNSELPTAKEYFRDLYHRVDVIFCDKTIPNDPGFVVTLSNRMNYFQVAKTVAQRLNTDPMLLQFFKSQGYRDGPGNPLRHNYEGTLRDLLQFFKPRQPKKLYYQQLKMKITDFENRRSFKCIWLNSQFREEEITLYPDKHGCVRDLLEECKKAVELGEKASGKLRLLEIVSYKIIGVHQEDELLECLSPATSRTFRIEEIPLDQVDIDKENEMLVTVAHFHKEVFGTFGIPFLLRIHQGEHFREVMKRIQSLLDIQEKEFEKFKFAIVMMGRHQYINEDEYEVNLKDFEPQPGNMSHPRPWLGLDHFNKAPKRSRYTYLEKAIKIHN

[9] = biological target: T7, Ubiquitin carboxyl-terminal hydrolase 7; assay: Inhibition of human his tagged USP7 (208 to 560 residues) expressed in insect sf9 cells using monoubiquitinated ubiquitin-rhodamine as substrate assessed as ratio of Kinact/Ki incubated for 1 hrs by fluorescence based assay
Target sequence in this assay (Q93009 whole entry, looked up, the tested form may be a part): as the sequence (Q93009 whole entry, the tested form may be a part) above

[10] = biological target: T7, Ubiquitin carboxyl-terminal hydrolase 7; assay: Inhibition of human his tagged USP7 (208 to 560 residues) expressed in insect sf9 cells using monoubiquitinated ubiquitin-rhodamine as substrate assessed as dissociation constant incubated for 1 hrs by fluorescence based assay
Target sequence in this assay (Q93009 whole entry, the tested form may be a part): as above

HCT-116 = assay: Anticancer activity against human HCT-116 cells assessed as cell growth inhibition; assay type: functional, cell-based
[11] = biological target: T7, Ubiquitin carboxyl-terminal hydrolase 7; assay: Inhibition of human USP7 using Ub-Rho110 as substrate by fluorescence based SPR analysis
Target sequence in this assay (Q93009 whole entry, the tested form may be a part): as above

[12] = biological target: T8, Ubiquitin carboxyl-terminal hydrolase 28 (Homo sapiens, UniProt Q96RU2); assay: Inhibition of USP28 (unknown origin) using […] as substrate by […] analysis
T8 sequence (Q96RU2 whole entry): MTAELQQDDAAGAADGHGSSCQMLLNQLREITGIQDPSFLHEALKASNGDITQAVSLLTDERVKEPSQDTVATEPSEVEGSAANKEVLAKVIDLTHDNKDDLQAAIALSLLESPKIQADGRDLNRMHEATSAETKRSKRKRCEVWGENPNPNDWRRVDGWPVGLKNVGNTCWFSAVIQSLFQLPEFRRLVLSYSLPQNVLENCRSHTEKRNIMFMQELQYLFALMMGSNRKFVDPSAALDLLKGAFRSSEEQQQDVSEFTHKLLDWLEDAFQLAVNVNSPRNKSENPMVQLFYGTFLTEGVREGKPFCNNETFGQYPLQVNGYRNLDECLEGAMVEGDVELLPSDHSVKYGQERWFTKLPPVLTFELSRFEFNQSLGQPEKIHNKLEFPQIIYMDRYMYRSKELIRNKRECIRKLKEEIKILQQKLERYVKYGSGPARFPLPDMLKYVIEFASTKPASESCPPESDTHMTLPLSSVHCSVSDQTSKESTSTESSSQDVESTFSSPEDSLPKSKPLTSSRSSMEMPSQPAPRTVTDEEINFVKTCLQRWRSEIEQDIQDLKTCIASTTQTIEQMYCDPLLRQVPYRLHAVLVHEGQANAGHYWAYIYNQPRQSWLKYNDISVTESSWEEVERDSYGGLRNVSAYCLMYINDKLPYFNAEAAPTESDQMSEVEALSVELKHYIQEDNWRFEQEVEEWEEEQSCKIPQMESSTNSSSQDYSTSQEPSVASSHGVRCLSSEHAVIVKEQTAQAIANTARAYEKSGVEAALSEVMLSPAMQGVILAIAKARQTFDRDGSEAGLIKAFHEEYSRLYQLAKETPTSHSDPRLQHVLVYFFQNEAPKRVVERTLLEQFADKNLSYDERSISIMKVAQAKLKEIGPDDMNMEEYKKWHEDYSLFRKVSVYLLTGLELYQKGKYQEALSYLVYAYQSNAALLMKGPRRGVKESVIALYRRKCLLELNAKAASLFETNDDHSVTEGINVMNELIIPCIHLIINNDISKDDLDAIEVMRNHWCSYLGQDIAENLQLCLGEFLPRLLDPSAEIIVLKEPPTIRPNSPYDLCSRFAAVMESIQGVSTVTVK

[13] = biological target: T9, Ubiquitin carboxyl-terminal hydrolase 25 (Homo sapiens, UniProt Q9UHP3); assay: Inhibition of USP25 (unknown origin) using […] as substrate by […] analysis
T9 sequence (Q9UHP3 whole entry): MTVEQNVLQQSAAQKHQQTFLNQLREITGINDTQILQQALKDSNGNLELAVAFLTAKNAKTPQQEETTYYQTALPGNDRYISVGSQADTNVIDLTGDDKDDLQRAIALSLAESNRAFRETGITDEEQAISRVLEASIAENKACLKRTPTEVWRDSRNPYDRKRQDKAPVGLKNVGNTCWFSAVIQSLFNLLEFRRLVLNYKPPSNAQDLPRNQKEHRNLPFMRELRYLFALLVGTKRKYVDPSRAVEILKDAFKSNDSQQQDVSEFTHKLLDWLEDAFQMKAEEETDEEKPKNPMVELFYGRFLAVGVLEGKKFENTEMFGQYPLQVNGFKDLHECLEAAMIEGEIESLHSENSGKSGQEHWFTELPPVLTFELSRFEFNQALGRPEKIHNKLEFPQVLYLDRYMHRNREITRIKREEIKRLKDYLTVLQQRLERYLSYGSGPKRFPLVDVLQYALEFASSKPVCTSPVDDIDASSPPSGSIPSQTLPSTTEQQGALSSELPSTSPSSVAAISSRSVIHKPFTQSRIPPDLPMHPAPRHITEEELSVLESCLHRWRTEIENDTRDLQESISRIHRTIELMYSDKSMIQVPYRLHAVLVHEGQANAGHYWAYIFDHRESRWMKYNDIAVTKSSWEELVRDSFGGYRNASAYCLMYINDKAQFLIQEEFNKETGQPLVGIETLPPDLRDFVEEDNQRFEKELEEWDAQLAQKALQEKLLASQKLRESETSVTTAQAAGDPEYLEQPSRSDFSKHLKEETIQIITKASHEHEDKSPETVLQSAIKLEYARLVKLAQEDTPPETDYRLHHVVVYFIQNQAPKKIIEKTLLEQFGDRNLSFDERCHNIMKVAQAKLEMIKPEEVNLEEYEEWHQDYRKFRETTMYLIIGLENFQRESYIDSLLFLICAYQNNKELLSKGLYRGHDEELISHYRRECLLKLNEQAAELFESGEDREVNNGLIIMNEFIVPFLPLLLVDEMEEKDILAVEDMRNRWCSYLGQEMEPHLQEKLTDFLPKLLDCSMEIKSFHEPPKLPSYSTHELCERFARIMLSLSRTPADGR

[14] = biological target: T7, Ubiquitin carboxyl-terminal hydrolase 7; assay: Inhibition of USP7 (unknown origin)
Target sequence in this assay (Q93009 whole entry, the tested form may be a part): as the sequence (Q93009 whole entry, the tested form may be a part) above

Structure (SMILES): O=C(NCCc1ccc(Cl)cc1)c1ccc2nc3c(c(Cl)c2c1)CCCC3
- IC50 [2]: > 200 µM
- IC50 [3]: > 200 µM
- IC50 [4]: > 200 µM
- IC50 [5]: > 200 µM
- IC50 [6]: > 200 µM
- IC50 [7]: > 200 µM

Structure (SMILES): CN(CCCNC(=O)c1ccc2nc3c(c(Cl)c2c1)CCCC3)Cc1ccccc1
- IC50 (HCT-116): 2 µM

Structure (SMILES): OCCNCc1cc(Br)ccc1OCc1cccc(OC(F)(F)F)c1
- IC50 [12]: 1.1 µM
- IC50 [13]: 0.88 µM

Structure (SMILES): CC(=O)c1cc([N+](=O)[O-])c(Sc2c(Cl)cncc2Cl)s1
- IC50 [14]: 2 µM

The next lines start with the values.

- Kis [1]: 24.6 µM
Structure (SMILES): Nc1nc2[nH]cnc2c(=S)[nH]1

- IC50 [8]: 0.065 µM
- Ratio [9]: 66 M⁻¹ s⁻¹
- Kd [10]: 7.8 µM
Structure (SMILES): C=CS(=O)(=O)Nc1ccccc1-c1ccc(C(=O)N2CCC(O)(Cn3cnc4c(cnn4-c4ccc(F)cc4)c3=O)CC2)cc1

- IC50 [11]: 0.0015 µM
Structure (SMILES): NCc1ccc(-c2[nH]nc3c(=O)n(CC4(O)CCN(C(=O)C[C@H](c5ccccc5)C(F)(F)F)CC4)cnc23)cc1

- IC50 [12]: 59.6 µM
- IC50 [13]: 52.5 µM
Structure (SMILES): OCCNCc1cc(Br)ccc1OCc1ccccc1
